Non-standard residues stand in square brackets, D forms with d. Residues, ends and D or L forms follow the SMILES beside them. pGlu = O=C1CC[C@@H](C(=O)O)N1; Thz = O=C(O)[C@@H]1CSCN1

Here are results for 4 compounds from ChEMBL document CHEMBL5303573, “Mapping human microbiome drug metabolism by gut bacteria and their genes” (Nature, 2019).

Data set [1] is described as follows: The drug is tested on Enterococcus faecalis strain: V583 for biotransformation. The drug concentrations were measured before and after a 12-h incubation by liquid-chromatography-coupled mass spectrometry (LC–MS). To be noted: 2 µM.
The nature of data set [2]: The drug is tested on Collinsella intestinalis strain: DSM13280 for biotransformation. The drug concentrations were measured before and after a 12-h incubation by liquid-chromatography-coupled mass spectrometry (LC–MS). To be noted: 2 µM.
For data set [3] the following is noted: bacteroides thetaiotaomicron, 12 h, 2 µM.
Description: The drug is tested on Bacteroides thetaiotaomicron strain: 7330 for biotransformation. The drug concentrations were measured before and after a 12-h incubation by liquid-chromatography-coupled mass spectrometry (LC–MS)
Data set [4] is described as follows: The drug is tested on Subdoligranulum variabile strain: DSM15176 for biotransformation. The drug concentrations were measured before and after a 12-h incubation by liquid-chromatography-coupled mass spectrometry (LC–MS). As to conditions: 2 µM.
For data set [5] the following is noted: bacteroides eggerthii, 12 h, 2 µM.
Description: The drug is tested on Bacteroides eggerthii strain: DSM20697 for biotransformation. The drug concentrations were measured before and after a 12-h incubation by liquid-chromatography-coupled mass spectrometry (LC–MS)
Data set [6] in a line: The drug is tested on Anaerotruncus colihominis strain: DSM17241 for biotransformation. The drug concentrations were measured before and after a 12-h incubation by liquid-chromatography-coupled mass spectrometry (LC–MS). As to conditions: 2 µM.
Data set [7] can be described thus: The drug is tested on Bacteroides uniformis strain: ATCC8492 for biotransformation. The drug concentrations were measured before and after a 12-h incubation by liquid-chromatography-coupled mass spectrometry (LC–MS). As to conditions: 2 µM.
The conditions of data set [8]: bacteroides fragilis, 12 h, 2 µM.
Description: The drug is tested on Bacteroides fragilis strain: DS-208 for biotransformation. The drug concentrations were measured before and after a 12-h incubation by liquid-chromatography-coupled mass spectrometry (LC–MS)
Data set [9] is described as follows: The drug is tested on Escherichia coli strain: BW25113 for biotransformation. The drug concentrations were measured before and after a 12-h incubation by liquid-chromatography-coupled mass spectrometry (LC–MS). To be noted: 2 µM.
The conditions of data set [10]: segatella copri, 12 h, 2 µM.
Description: The drug is tested on Prevotella copri strain: DSM18205 for biotransformation. The drug concentrations were measured before and after a 12-h incubation by liquid-chromatography-coupled mass spectrometry (LC–MS)
The nature of data set [11]: The drug is tested on Providencia rettgeri strain: DSM1131 for biotransformation. The drug concentrations were measured before and after a 12-h incubation by liquid-chromatography-coupled mass spectrometry (LC–MS). It counts as ADME. Also on record: dose 2 uM, timepoint 0 vs 12 hours. As to conditions: 2 µM.
Data set [12] can be described thus: The drug is tested on Bacteroides fragilis strain: ATCC43859 for biotransformation. The drug concentrations were measured before and after a 12-h incubation by liquid-chromatography-coupled mass spectrometry (LC–MS). As to conditions: 2 µM.
Data set [13] is described as follows: The drug is tested on Clostridium symbiosum strain: ATCC14940 for biotransformation. The drug concentrations were measured before and after a 12-h incubation by liquid-chromatography-coupled mass spectrometry (LC–MS). To be noted: 2 µM.
A short description of data set [14]: The drug is tested on Anaerococcus hydrogenalis strain: DSM7454 for biotransformation. The drug concentrations were measured before and after a 12-h incubation by liquid-chromatography-coupled mass spectrometry (LC–MS). As to conditions: 2 µM.
The nature of data set [15]: The drug is tested on Bacteroides sp. WH2 strain: WH2 for biotransformation. The drug concentrations were measured before and after a 12-h incubation by liquid-chromatography-coupled mass spectrometry (LC–MS). To be noted: bacteroides sp. wh2, 12 h, 2 µM.
For data set [16] the following is noted: bacteroides thetaiotaomicron, 12 h, 2 µM. The source holds these as a separate data set.
Description: The drug is tested on Bacteroides thetaiotaomicron strain: VPI-5482 for biotransformation. The drug concentrations were measured before and after a 12-h incubation by liquid-chromatography-coupled mass spectrometry (LC–MS)
The nature of data set [17]: The drug is tested on Bacteroides finegoldii strain: DSM17565 for biotransformation. The drug concentrations were measured before and after a 12-h incubation by liquid-chromatography-coupled mass spectrometry (LC–MS). To be noted: 2 µM.
The conditions of data set [18]: limosilactobacillus reuteri cf48-3a, 12 h, 2 µM.
Description: The drug is tested on Lactobacillus reuteri CF48-3A strain: BEI HM-102 for biotransformation. The drug concentrations were measured before and after a 12-h incubation by liquid-chromatography-coupled mass spectrometry (LC–MS)
Data set [19] can be described thus: The drug is tested on Bacteroides caccae strain: ATCC43185 for biotransformation. The drug concentrations were measured before and after a 12-h incubation by liquid-chromatography-coupled mass spectrometry (LC–MS). As to conditions: 2 µM.
A short description of data set [20]: The drug is tested on Parabacteroides merdae strain: ATCC43184 for biotransformation. The drug concentrations were measured before and after a 12-h incubation by liquid-chromatography-coupled mass spectrometry (LC–MS). As to conditions: 2 µM.

Regarding `O=C1CC[C@@H](C(=O)N2CSC[C@H]2C(=O)O)N1` [PIDOTIMOD] ([pGlu]-[Thz]-OH), the “Bacterial Biotransformation” value in [1] is recorded as “Compound NOT metabolized”; in [2], “Compound NOT metabolized”; in data set [3] it was “Compound metabolized”; in data set [4] it was “Compound NOT metabolized”; in data set [5], “Compound NOT metabolized”; in [6] it was “Compound NOT metabolized”. For the same compound, the “Bacterial Biotransformation” value in data set [7] was “Compound metabolized”; in data set [8] it was “Compound metabolized”; in data set [9] it was “Compound NOT metabolized”; in data set [10], “Compound metabolized”; in data set [11], “Compound NOT metabolized”; in [12], “Compound metabolized”. Besides, the “Bacterial Biotransformation” value in data set [13] is recorded as “Compound NOT metabolized”; in [14], “Compound NOT metabolized”; in [15] it was “Compound NOT metabolized”; in data set [16], “Compound metabolized”.
In the case of `CCN(C)C(=O)Oc1cccc([C@H](C)N(C)C)c1.O=C(O)C(O)C(O)C(=O)O` [RIVASTIGMINE TARTRATE], the “Bacterial Biotransformation” value in data set [17], in [18], in data set [19], in data set [1], in [2] and in data set [20] was “Compound NOT metabolized” each time. The “Bacterial Biotransformation” value in [4], in [5], in [6], in data set [7], in data set [8] and in [9] was “Compound NOT metabolized” throughout. For the same compound, the “Bacterial Biotransformation” value in data set [10], in data set [11], in [12], in [13], in data set [14] and in data set [15] was “Compound NOT metabolized” each time. In [16], the “Bacterial Biotransformation” value is “Compound NOT metabolized”.
On to `CCCN(CCC)CCc1cccc2c1CC(=O)N2` [ROPINIROLE], for which the “Bacterial Biotransformation” value in data set [17], in data set [18], in data set [1], in data set [2], in [3] and in [20] was “Compound NOT metabolized” throughout. The “Bacterial Biotransformation” value in [4], in [5], in [6], in data set [7], in [8] and in data set [9] was “Compound NOT metabolized” throughout. The “Bacterial Biotransformation” value in data set [10], in [11], in data set [12], in [13], in data set [14] and in [15] was “Compound NOT metabolized” in each case.
With `O=c1n(CCCN2CCN(c3cccc(Cl)c3)CC2)nc2ccccn12` [TRAZODONE], the “Bacterial Biotransformation” value in data set [17], in data set [18], in data set [19], in data set [1], in data set [2] and in data set [3] was “Compound NOT metabolized” each time. Also, the “Bacterial Biotransformation” value in data set [20], in data set [4], in data set [5], in data set [6], in [8] and in data set [9] was “Compound NOT metabolized” each time. Moreover, the “Bacterial Biotransformation” value in data set [10], in data set [11], in data set [12], in data set [13], in data set [14] and in [15] was “Compound NOT metabolized” in each case. Also, the “Bacterial Biotransformation” value in [16] is “Compound NOT metabolized”.
